Reference: US9006285B2, “Therapeutic agent for hepatitis C” (Mochida Pharmaceutical Co., Ltd., priority 2008, dated 2015)

Legend:
[1] = tested on: HCV replication in OR6 cells; details: cited from earlier work
[2] = tested on: HCV replication in Ava5 cells; details: cited from earlier work
[3] = tested on: hepatitis C virus (HCV); assay: EPA-E before and during interferon therapy in hepatitis C with or without hepatic steatosis (Example 2-2); format: in vivo, human; details: 1800 to 2700 mg/day oral at least one month before and during interferon therapy
Method: The patients to be tested are divided into two groups, EPA-E administered group and EPA-E non-administered group. In addition, a fatty liver group and a non-fatty liver group are set up in each of the EPA-E administered group and the EPA-E non-administered group by investigating the degree of hepatic fatty change through diagnostic imaging or hepatobiopsy. To the EPA-E administered group, 1800 to 2700 mg/day of EPA-E is orally administered for at least one month before interferon therapy. To the EPA-E non-administered group, none of EPA and derivatives thereof is administered during the testing period. Subsequently, interferon therapy is conducted on each group for three months or longer. The dose, dosage interval, dosage period, and the like of interferon are specified as appropriate to the condition of a patient, side effects of the interferon, and so forth. After the termination of interferon administration, the alanine aminotransferase (ALT) activity and the HCV-RNA level are measured (the latter by a COBAS AMPLICOR MONITOR assay), and a hepatohistological test is conducted. It should be noted that EPA-E is also administered to the EPA-E group during the administration of interferon.

[4] = in vivo; cited from earlier work
[5] = tested on: blood HCV-RNA level (hepatitis C virus); assay: Interferon therapy (interferon and ribavirin) with or without EPA-E in hepatitis C patients, by blood triglyceride level (Example 3); format: in vivo, human; details: hepatitis C complicated with hypertriglyceridemia; interferon therapy along with oral 1800 to 2700 mg/day EPA-E
From the text: The determination of the response rate to interferon therapy needs a follow-up survey for six months or longer after the completion of the therapy, that is to say, is time-consuming. The response rate can be determined earlier by using a leading index as a surrogate. For instance, the response rate to interferon therapy is expected to be increased if the reduction in viral load (reduction in blood HCV-RNA level) is significant three days after the start of the therapy. Accordingly, the reduction in viral load three days after the start of interferon therapy can be used as a leading index for the determination of the response rate to the interferon therapy. The reduction in viral load is preferably not less than 2.0 as the difference between the common logarithm value of the blood HCV-RNA level before the start of interferon therapy and the common logarithm value of the blood HCV-RNA level three days after the start of interferon therapy.
On the patients having hepatitis C complicated with hypertriglyceridemia, the interferon therapy was then conducted along with the oral administration of 1800 to 2700 mg/day of EPA-E.
As a result, the reduction in viral load was 2.375 on average, that is to say, EPA-E improved the effectiveness of the interferon therapy in the patients having hepatitis C complicated with hypertriglyceridemia. […]

[6] = tested on: hepatitis C virus (HCV); assay: EPA-E in interferon non-responders having hepatitis C complicated with hepatic steatosis (Example 1); format: in vivo, human; details: 2700 mg/day oral, third and sixth month, no interferon
Method: To the patients from whom interferon was withdrawn for about one month after they were determined to be unresponsive to interferon therapy, 2700 mg/day of EPA-E is orally administered for three months or longer. During the testing period, it is forbidden to administer any new drug considered to effect change in hepatic function. Also forbidden is administration of interferon. If the alanine aminotransferase (ALT) activity and/or the HCV-RNA level is quantified (the latter by a COBAS AMPLICOR MONITOR assay) before EPA-E administration, as well as on the third month and the sixth month of EPA-E administration, and the values as obtained are compared with those before administration, it is confirmed that the ALT activity and/or the HCV-RNA level is reduced by not less than 10%.
Instead of the ALT activity, improvement in liver tissue finding, reduction in lipid droplet, or reduction in proportion of 18:1 fatty acids (oleic acid in particular) among liver triglyceride fractions may be confirmed.

[7] = tested on: hepatitis C virus (HCV); assay: Response rate to repeated interferon therapy after EPA-E in non-responders or relapsers (Example 2-1); format: in vivo, human; details: 1800 to 2700 mg/day oral for three months before repeated interferon therapy; six months after completion of interferon therapy
Method: Employing those hepatitis C patients as targets who were determined as non-responders or relapsers after interferon therapy, it is confirmed that the response rate to the interferon therapy is improved in re-treatment cases by the administration of EPA-E.
The patients to be tested are divided into two groups, namely, EPA-E administered group and EPA-E non-administered group. To the EPA-E administered group, 1800 to 2700 mg/day of EPA-E is orally administered for three months after the patients were determined as non-responders or relapsers with respect to the interferon therapy. To the EPA-E non-administered group, none of EPA and derivatives thereof is administered during the testing period. Subsequently, the interferon therapy is conducted again on both groups. The dose, dosage interval, dosage period, and the like of interferon are specified as appropriate to the condition of a patient, side effects of the interferon, and so forth. The ratio at which the patients became negative for the HCV-RNA level is calculated six months after the completion of interferon therapy.
It is confirmed that the ratio as calculated is higher in the EPA-E administered group than the EPA-E non-administered group.

[8] = tested on: blood HCV-RNA level (hepatitis C virus); assay: Time to negativity for the blood HCV-RNA level on repeated interferon therapy after EPA-E (Example 2-3); format: in vivo, human; details: 1800 to 2700 mg/day oral at least two weeks before repeated interferon therapy
Method: Employing those hepatitis C patients as targets who were determined as non-responders or relapsers after interferon therapy, it is confirmed that the time at which the patients become negative for the blood HCV-RNA level is allowed to be earlier by the administration of EPA-E.
The patients to be tested are divided into two groups, EPA-E administered group and EPA-E non-administered group. To the EPA-E administered group, 1800 to 2700 mg/day of EPA-E is orally administered for at least two weeks after the patients were determined as non-responders or relapsers with respect to the interferon therapy. To the EPA-E non-administered group, none of EPA and derivatives thereof is administered during the testing period. Subsequently, the interferon therapy is conducted again on both groups. The dose, dosage interval, dosage period, and the like of interferon are specified as appropriate to the condition of a patient, side effects of the interferon, and so forth. The blood HCV-RNA level is measured in course of the administration of interferon. Data on the time after the start of interferon administration at which the patients became negative for the blood HCV-RNA level are collected to comparison between the two groups.
For instance, the ratio of the patients becoming negative for the blood HCV-RNA level within 12 weeks after the start of interferon administration is increased.

[9] = healthy male adult, cited from earlier work
[10] = tested on: hepatitis C virus (HCV); details: hepatitis C patients; cited from earlier work
[11] = in one week of continuous oral administration

CCCCC/C=C\C/C=C\CCCCCCCC(=O)O [linoleic acid]
HCV replication-inhibiting effect independent of cytotoxicity [1]: only linoleic acid had the HCV replication-inhibiting effect

CCCCC/C=C\C/C=C\C/C=C\C/C=C\CCCC(=O)O [arachidonic acid]
HCV replication [2]: inhibited HCV replication
HCV replication-inhibiting effect independent of cytotoxicity [1]: only linoleic acid had the HCV replication-inhibiting effect

CC/C=C\C/C=C\C/C=C\C/C=C\C/C=C\C/C=C\CCC(=O)O [DHA, docosahexaenoic acid]
HCV replication-inhibiting effect independent of cytotoxicity [1]: only linoleic acid had the HCV replication-inhibiting effect

CC/C=C\C/C=C\C/C=C\C/C=C\C/C=C\CCCC(=O)O [EPA, icosapentaenoic acid]
effect of interferon and EPA in combination versus interferon alone on hepatitis C complicated with hepatic steatosis [3]: greater effect
HCV replication [2]: inhibited HCV replication
anaemia during combination therapy with interferon and ribavirin [4]: can prevent anaemia
HCV replication-inhibiting effect independent of cytotoxicity [1]: only linoleic acid had the HCV replication-inhibiting effect

CC/C=C\C/C=C\C/C=C\C/C=C\C/C=C\CCCC(=O)OCC [EPA-E, ethyl icosapentate]
reduction in viral load (difference between common logarithm values of the blood HCV-RNA level), on average [5]: 2.375
reduction of HCV-RNA level compared with before administration ([6]; COBAS AMPLICOR MONITOR assay): not less than 10%
reduction of ALT activity compared with before administration [6]: not less than 10%
ratio at which patients became negative for the HCV-RNA level, versus EPA-E non-administered group [7]: higher
effect on hepatitis C complicated with hepatic steatosis versus not complicated with hepatic steatosis ([3]; ALT, HCV-RNA, hepatohistological test): greater
ratio of patients becoming negative for the blood HCV-RNA level within 12 weeks after start of interferon administration [8]: increased
time at which patients become negative for the blood HCV-RNA level, versus EPA-E non-administered group [8]: shows a tendency to be earlier
time at which the plasma EPA level reaches a plateau ([9]; continuous oral administration): one week
plasma EPA/AA (arachidonic acid) ratio [9, 11]: higher than 1.0
plasma EPA/AA relative to that before administration [9, 11]: about two times

IFN-α
HCV elimination rate [10]: about 30%
